Measurements reported in patent publication US4370340A, “Benzothiazol-2-one-3-alkanoic acids and esters and aldose reductase inhibiting compositions thereof” (Fujisawa Pharmaceutical Co., Ltd., priority 1979, dated 1983).
Read-outs that look alike come from different tables or passages of the source.

Molecular target: T1, rabbit lens aldose reductase (Oryctolagus cuniculus, UniProt P15122)
T1 construct: aldose reductase prepared from rabbit lens; from tissue; host or cells: rabbit lens
Assay: Inhibitory effect on rabbit lens aldose reductase
Type: biochemical

[1] = aldose reductase prepared from rabbit lens, graphically calculated from inhibitory effect at various concentrations, read-out: 50% Inhibitory concentration (IC50)

Row | SMILES | IC50 [1] | IC50
1 | Cc1cc2c(cc1-c1ccccc1)sc(=O)n2CC(=O)O [compound 14] | 33 nM | –
2 | O=C(O)Cn1c(=O)sc2cc(C3CCCCC3)c(Cl)cc21 [Test Compound 6, 2-Oxo-5-chloro-6-cyclohexyl-3-benzothiazolineacetic acid] | 140 nM | –
3 | O=C(O)Cn1c(=O)oc2ccc(Cl)cc21 [compound 11] | 250 nM | –
4 | O=C(O)Cn1c(=O)sc2cc(Oc3ccccc3)c(Cl)cc21 [Test Compound 1, 2-Oxo-5-chloro-6-phenoxy-3-benzothiazolineacetic acid] | 50 nM | –
5 | O=C(O)CN1C(=O)Cc2ccc(Cl)cc21 [compound 9] | 270 nM | –
6 | O=C(O)Cn1c(=O)sc2cc(-c3ccccc3)c(Cl)cc21 [compound 2] | 29 nM | –
7 | O=C(O)Cn1c(=O)sc2c(Cl)c(-c3ccccc3)ccc21 [Test Compound 5, 2-Oxo-6-phenyl-7-chloro-3-benzothiazolineacetic acid] | 120 nM | –
8 | O=C(O)Cn1c(=O)sc2cc([N+](=O)[O-])c(Cl)cc21 [compound 16] | 120 nM | –
9 | O=C(O)Cn1c(=O)sc2cc(Cl)c(Cl)cc21 [Test Compound 15, 2-Oxo-5,6-dichloro-3-benzothiazolineacetic acid] | 38 nM | –
10 | O=C(O)Cn1c(=O)oc2cc(-c3ccccc3)c(Cl)cc21 [compound 7] | 49 nM | –
11 | O=C(O)Cn1c(=O)sc2cc(Cl)ccc21 [compound 12] | – | 410 nM
12 | O=C(O)Cn1c(=O)sc2cc(Oc3ccccc3Cl)ccc21 [compound 4] | 270 nM | –
13 | O=C(O)CN1C(=O)C(=O)c2ccc(Cl)cc21 [Test Compound 13, 2,3-dioxo-6-chloro-1-indolineacetic acid] | 300 nM | –
14 | O=C(O)Cn1c(=O)sc2cc(Oc3ccccc3)ccc21 [Test Compound 3, 2-Oxo-6-phenoxy-3-benzothiazolineacetic acid] | 690 nM | –
15 | O=C(O)Cn1c(=O)sc2ccc(Cl)cc21 [Test Compound 10, 2-Oxo-5-chloro-3-benzothiazolineacetic acid] | 200 nM | –
16 | O=C(O)Cn1c(=O)sc2cc(Br)c(Cl)cc21 [Test Compound 8, 2-Oxo-5-chloro-6-bromo-3-benzothiazolineacetic acid] | 50 nM | –
17 | Nc1cc2sc(=O)n(CC(=O)O)c2cc1Cl [compound 17] | 100 nM | –
